The values that follow come from paper PMC12530851, “Design, synthesis, and apoptotic antiproliferative activity of novel dihydropyrimidine-5-carbonitrile/1,2,4-oxadiazole hybrids as dual EGFR/VEGFR-2 inhibitors endowed with antioxidant activity” (RSC Advances, 2025).

A word on the IC50: it is the midpoint of a concentration-inhibition curve.

Each structure is given as a SMILES string.

Assay [1] has as its system Panc-1 (pancreatic cancer). Briefly: Antiproliferative assay, Panc-1. The assay is classed as cell-based. The note with it: Homo sapiens; Panc-1 pancreatic cancer cells; read-out: Antiproliferative activity IC50 ± SEM, Panc-1. The source says:
The dose–response experiments established the IC50 values for the new compounds. The given findings were obtained from at least two distinct studies, each comprising three repeats per concentration. Appendix A (SI File) provides experimental details.[38,39]
The MTT assay[43] was utilized to assess the antiproliferative effects of compounds 10a–l on four human cancer cell lines: HT-29 (colon cancer), Panc-1 (pancreatic cancer), A-549 (lung cancer), and MCF-7 (breast cancer). […]
4.2.2. Assay for antiproliferative effect
To explore the antiproliferative potential of compounds propidium iodide fluorescence assay was performed using different cell lines such as Panc-1 (pancreas cancer cell line), MCF-7 (breast cancer cell line), HT-29 (colon cancer cell line) and A-549 (epithelial cancer cell line), respectively. To calculate the total nuclear DNA, a fluorescent dye (propidium iodide, PI) is used which can attach to the DNA, thus offering a quick and precise technique. PI cannot pass through the cell membrane and its signal intensity can be considered as directly proportional to quantity of cellular DNA. Cells whose cell membranes are damaged or have changed permeability are counted as dead ones. The assay was performed by seeding the cells of different cell lines at a density of 3000-7500 cells/well (in 200μl medium) in culture plates followed by incubation for 24h at 37 °C in humidified 5%CO2/95% air atmospheric conditions. The medium was removed; the compounds were added to the plates at 10 μM concentrations (in 0.1% DMSO) in triplicates, followed by incubation for 48h. DMSO (0.1%) was used as control. After incubation, medium was removed followed by the addition of PI (25 μl, 50μg/mL in water/medium) to each well of the plates. At - 80 °C, the plates were allowed to freeze for 24 h, followed by thawing at 25 °C. A fluorometer (Polar-Star BMG Tech) was used to record the readings at excitation and emission wavelengths of 530 and 620 nm for each well. The percentage cytotoxicity of compounds was calculated using […]
Where ATC= Absorbance of treated cells and AC= Absorbance of control. Erlotinib was used as positive control in the assay. […]

Another assay concerns Bax. As to the kind of experiment: Bax activation assay in MCF-7 cells. The note with it: for Bax Fold change: vs untreated control. The assay is classed as cell-based, human. The protocol:
Compounds10k and 10l were tested as caspases-3, 8, 9, Bax and p53 activators and as down-regulators of the anti-apoptotic protein Bcl2 against the MCF-7 breast cancer cell line.[41] Appendix A gives more details.
The Bcl-2 protein family, which includes pro-apoptotic proteins (Bax) and anti-apoptotic proteins (Bcl-2), primarily regulates apoptosis.[46] […] Consequently, we assessed the expression levels of Bcl-2 and Bax proteins in MCF-7 breast cancer cells treated with compounds 10k and 10l, Table 6. […]
Cells were obtained from American Type Culture Collection, cells were grown in RPMI 1640 containing 10% fetal bovine serum at 37°C, stimulated with the compounds to be tested for caspase 8/9, and lysed with Cell Extraction Buffer. This lysate was diluted in Standard Diluent Buffer over the range of the assay and measured for human active caspase-8/9 content. (Cells are Plated in a density of 1.2 – 1.8 × 10,000 cells/well in a volume of 100µl complete growth medium + 100 ul of the tested compound per well in a 96-well plate for 24 hours before the enzyme assay). […]
4.2.7. Bax activation assay
Bring all reagents, except the human Bax-α Standard, to room temperature for at least 30 minutes prior to opening. The human Bax-α Standard solution should not be left at room temperature for more than 10 minutes. All standards, controls and samples should be run in duplicate. Refer to the Assay Layout Sheet to determine the number of wells to be used and put any remaining wells with the desiccant back into the pouch and seal the ziploc. Store unused wells at 4 °C. Pipet 100 μL of Assay Buffer into the S0 (0 pg/mL standard) wells. Pipet 100 μL of Standards #1 through #6 into the appropriate wells. Pipet 100 μL of the Samples into the appropriate wells. Tap the plate gently to mix the contents. Seal the plate and incubate at room temperature on a plate shaker for 1 hour at ~500 rpm. Empty the contents of the wells and wash by adding 400 μL of wash solution to every well. Repeat the wash 4 more times for a total of 5 washes. After the final wash, empty or aspirate the wells and firmly tap the plate on a lint free paper towel to remove any remaining wash buffer.
Pipet 100 μL of yellow Antibody into each well, except the Blank. Seal the plate and incubate at room temperature on a plate shaker for 1 hour at ~500 rpm. Empty the contents of the wells and wash by adding 400 μL of wash solution to every well. Repeat the wash 4 more times for a total of 5 washes. […]
Pipet 100 μL of Substrate Solution into each well. […] Blank the plate reader against the Blank wells, read the optical density at 450 nm. […]
The concentration of Bax in the unknowns can be determined by interpolation. […]

Regarding `COc1ccc(-c2noc(CSc3nc(-c4ccc(OC)cc4)c(C#N)c(=O)[nH]3)n2)cc1` [Compound 10l, 2-(((3-(4-Methoxyphenyl)-1,2,4-oxadiazol-5-yl)methyl)thio)-4-(4-methoxyphenyl)-6-oxo-1,6-dihydropyrimidine-5-carbonitrile], the IC50 in assay [1] worked out at 26 ± 1 nM. Further, in the assay with Bax, the Bax stood at 505 ± 3 pg/mL and the “Bax Fold change” value amounted to 8 fold.

Turning to `COc1ccc(-c2nc(SCc3nc(-c4ccc(Cl)cc4)no3)[nH]c(=O)c2C#N)cc1` [Compound 10k, 2-(((3-(4-Chlorophenyl)-1,2,4-oxadiazol-5-yl)methyl)thio)-4-(4-methoxyphenyl)-6-oxo-1,6-dihydropyrimidine-5-carbonitrile], the half-inhibitory concentration (IC50) in assay [1] stood at 22 ± 1 nM. In addition, in the assay with Bax, the Bax amounted to 545 ± 3 pg/mL and the “Bax Fold change” value amounted to 9 fold.
